Values quoted from earlier work as cited in patent publication US20090214511A1, “DIGESTIBLE COMPOSITIONS OF INULIN FOR MANAGING BLOOD GLUCOSE LEVELS” (priority 2008, published 2009).

| SMILES | cumulative incidence of monotherapy failure at 5 years (Type 2 diabetes, initial choice of anti-diabetic drug, 5 years) | weight gain and edema versus non-users (randomized controlled trial, users vs non-users) |
| --- | --- | --- |
| CN(C)C(=N)N=C(N)N [metformin] | 21% | – |
| CN(CCOc1ccc(CC2SC(=O)NC2=O)cc1)c1ccccn1 (centres unmarked) [rosiglitazone] | – | more weight gain and edema |
